Measurements as given in paper PMC9490041, “Determinants of affinity, specificity, and phase separation in a supramodule from Post-synaptic density protein 95” (iScience, 2022).
Where two headings read alike, the source gives them in different places. Ends that are not written are not given here.

Columns and labels:
Assay in all cases: FP displacement (competition) of FITC-15 AA CRIPT by library peptide, IC50 and Ki
PSG (PSD-95) = conditions: for IC50: read-out: IC50 (µM), PSG
PSG G335A (PSD-95) = conditions: for IC50: read-out: IC50 (µM), PSG G335A; for Ki: read-out: Ki (µM), PSG G335A
PSG G322A G335A (PSD-95) = conditions: for IC50: read-out: IC50 (µM), PSG G322A G335A; for Ki: read-out: Ki (µM), PSG G322A G335A
PSG G322A (PSD-95) = conditions: for IC50: read-out: IC50 (µM), PSG G322A; for Ki: read-out: Ki (µM), PSG G322A
[1] = FP displacement of FITC-15 AA CRIPT probe by acetylated PSD library peptide
[2] = read-out: Ki (µM), PSG, FP displacement of FITC-15 AA CRIPT probe by acetylated PSD library peptide
[3] = FP displacement of FITC-15 AA CRIPT probe by acetylated PSD library peptide (P-13 to P0 plus extra N-terminal Y)
[4] = FP displacement of FITC-15 AA CRIPT probe by PSD library peptide, protein PSG (wild type)
[5] = read-out: Ki (µM), PSG, FP displacement of FITC-15 AA CRIPT probe by PSD library peptide, protein PSG (wild type)
[6] = FP displacement of FITC-15 AA CRIPT probe by PSD library peptide, protein PSG G335A
[7] = FP displacement of FITC-15 AA CRIPT probe by PSD library peptide, protein PSG G322A
[8] = FP displacement of FITC-15 AA CRIPT probe by PSD library peptide, protein PSG G322A G335A

| Compound | IC50 (PSG (PSD-95); [1]) [µM] | Ki (PSG (PSD-95); [2]) [µM] | IC50 (PSG G335A (PSD-95); [1]) [µM] | Ki (PSG G335A (PSD-95); [1]) [µM] | IC50 (PSG G322A G335A (PSD-95); [3]) [µM] | Ki (PSG G322A G335A (PSD-95); [1]) [µM] | IC50 (PSG (PSD-95); [4]) [µM] | Ki (PSG (PSD-95); [5]) [µM] | IC50 (PSG G335A (PSD-95); [6]) [µM] | Ki (PSG G335A (PSD-95); [6]) [µM] | IC50 (PSG G322A (PSD-95); [7]) [µM] | Ki (PSG G322A (PSD-95); [7]) [µM] | IC50 (PSG G322A G335A (PSD-95); [8]) [µM] | Ki (PSG G322A G335A (PSD-95); [8]) [µM] | IC50 (PSG G322A (PSD-95); [1]) [µM] | Ki (PSG G322A (PSD-95); [1]) [µM] | Ki (PSG (PSD-95); FP displacement of 5 nM FITC-15 AA CRIPT by non-labeled acetylated peptide, room temperature, Ki from IC50, technical triplicates, PSG) [µM] |
| --- | --- | --- | --- | --- | --- | --- | --- | --- | --- | --- | --- | --- | --- | --- | --- | --- | --- |
| Ac-YDKPLSKKHAHSVNF [PDLI5] | 2060 | 879 | 2060 | 736 | 973 | 337 | – | – | – | – | – | – | – | – | – | – | – |
| CC(=O)N[C@@H](Cc1ccc(O)cc1)C(=O)N[C@@H](CC(=O)O)C(=O)N[C@@H](CO)C(=O)N[C@H](C(=O)N[C@@H](CCC(=O)O)C(=O)N[C@@H](CCC(N)=O)C(=O)N[C@@H](CO)C(=O)N[C@@H](CC(=O)O)C(=O)N[C@H](C(=O)N[C@@H](CCCNC(=N)N)C(=O)N[C@@H](Cc1ccccc1)C(=O)N[C@@H](CO)C(=O)N[C@@H](CO)C(=O)N[C@@H](C)C(=O)N[C@H](C(=O)O)C(C)C)C(C)C)[C@@H](C)O [GPER1] | – | – | – | – | – | – | 865 | 456 | 499 | 178 | 190 | 82 | 238 | 82 | – | – | – |
| CSCC[C@H](NC(=O)[C@H](CO)NC(=O)[C@H](Cc1ccc(O)cc1)NC(=O)[C@H](CC(C)C)NC(=O)[C@H](Cc1ccc(O)cc1)NC(=O)[C@H](Cc1ccc(O)cc1)NC(=O)[C@H](Cc1ccccc1)NC(=O)[C@H](Cc1ccc(O)cc1)NC(C)=O)C(=O)N[C@H](C(=O)N[C@@H](Cc1ccc(O)cc1)C(=O)N[C@H](C(=O)N[C@@H](CC(C)C)C(=O)N[C@H](C(=O)N[C@@H](CO)C(=O)N[C@@H](Cc1ccccc1)C(=O)O)C(C)C)[C@@H](C)O)C(C)C [CNIH2] | 2080 | 888 | 516 | 184 | 727 | 252 | – | – | – | – | – | – | – | – | 2260 | 982 | – |
| CC[C@H](C)[C@H](NC(=O)[C@H](Cc1ccc(O)cc1)NC(=O)[C@H](CO)NC(=O)CNC(=O)[C@H](CO)NC(=O)[C@H](CCC(N)=O)NC(=O)[C@H](Cc1ccc(O)cc1)NC(C)=O)C(=O)N[C@@H](Cc1c[nH]c2ccccc12)C(=O)N[C@H](C(=O)N1CCC[C@H]1C(=O)N[C@@H](C)C(=O)N[C@@H](CCCCN)C(=O)N[C@@H](CCC(=O)O)C(=O)N[C@@H](CCCCN)C(=O)N[C@@H](CC(C)C)C(=O)O)C(C)C [DLG1] | 1470 | 628 | 1310 | 466 | 1590 | 550 | – | – | – | – | – | – | – | – | 1600 | 692 | – |
| CC[C@H](C)[C@H](NC(=O)[C@H](CCC(=O)O)NC(=O)[C@H](CCC(=O)O)NC(=O)[C@@H](NC(=O)[C@@H](NC(=O)[C@H](CO)NC(=O)[C@H](CCC(=O)O)NC(=O)[C@H](Cc1ccc(O)cc1)NC(C)=O)[C@@H](C)O)[C@@H](C)O)C(=O)N[C@@H](CCC(=O)O)C(=O)N[C@@H](CC(C)C)C(=O)N[C@@H](CCC(=O)O)C(=O)N[C@@H](CC(=O)O)C(=O)N[C@H](C(=O)N[C@@H](CCC(=O)O)C(=O)N[C@@H](CS)C(=O)O)C(C)C [VSTM5] | 75 | 31 | 120 | 43 | 73 | – | – | – | – | – | – | – | – | – | 86 | 37 | < 75 |
| CC(=O)N[C@@H](Cc1ccc(O)cc1)C(=O)N[C@@H](CC(C)C)C(=O)N[C@@H](C)C(=O)N[C@@H](CC(=O)O)C(=O)N[C@@H](CCC(=O)O)C(=O)N[C@H](C(=O)N[C@@H](CO)C(=O)N[C@@H](C)C(=O)N[C@@H](CO)C(=O)N[C@@H](CC(C)C)C(=O)N[C@@H](C)C(=O)N[C@@H](CCCCN)C(=O)N[C@@H](CCC(N)=O)C(=O)NCC(=O)N[C@@H](CC(C)C)C(=O)O)C(C)C [TAU] | – | – | – | – | – | – | 2070 | 884 | 729 | 260 | 489 | 212 | 219 | 76 | – | – | – |
| CC(=O)N[C@@H](Cc1ccc(O)cc1)C(=O)N[C@@H](Cc1c[nH]cn1)C(=O)N[C@@H](Cc1c[nH]cn1)C(=O)N[C@H](C(=O)N[C@@H](CO)C(=O)N[C@@H](Cc1ccc(O)cc1)C(=O)N[C@H](C(=O)N[C@@H](C)C(=O)N[C@@H](CO)C(=O)N[C@@H](CCCCN)C(=O)N[C@H](C(=O)N[C@@H](CCC(=O)O)C(=O)N[C@H](C(=O)N[C@H](C(=O)N[C@H](C(=O)O)C(C)C)[C@@H](C)O)C(C)C)[C@@H](C)O)[C@@H](C)O)[C@@H](C)O [SHSA6] | – | – | – | – | – | – | 1220 | 518 | – | – | 2000 | 867 | 1170 | 405 | – | – | – |
